In patent US8293736B2, “Purine compounds selective for PI3K P110 delta, and methods of use” (F. Hoffmann la Roche AG, priority 2010, dated 2012):

Tests used:
p110 delta = biological target: T1, p110 delta (Homo sapiens, UniProt O00329); test: PI3K isoform inhibition assay (fluorescence polarization), p110 delta; type: biochemical; conditions: Ki apparent, Morrison equation; 25 μM ATP, 10 μM PIP2
T1 construct: purchased Upstate Group, Millipore; Dundee, UK
Protocol: (§1) Determination of the activity of PI3 kinase activity of Formula I compounds is possible by a number of direct and indirect detection methods.
(§2) PI3K enzymatic activity was assayed by measuring the amount of product phosphatidylinositol 3,4,5-phosphate (PIP3) formed from substrate 4,5 phosphatidylinositol 4,5-phosphate (PIP2) using a fluorescence polarization displacement assay. The decrease in fluorescence polarization of a fluorescent PIP3 probe is measured as it is displaced from a PIP3-binding protein GRP-1 detector by PI3K-catalyzed product. […] The kinase reactions were initiated by the addition of 40 ng/mL p110α/p85α, 300 ng/mL p110β/p85α, 40 ng/mL p110γ, or 40 ng/mL p110δ/p85α (Upstate Group, Millipore; Dundee, UK), and 10 μM PIP2 (Echelon Biosciences) to the wells. […] After 60 minutes of incubation at room temperature to allow equilibration of labeled and unlabeled PIP3 binding, the parallel and perpendicular components of the fluorescence emissions from each sample were measured at an excitation wavelength of 530 nm and an emission wavelength of 590 nm using an Envision fluorescent plate reader with a rhodamine filter (PerkinElmer Life and Analytical Sciences; Wellesley, Mass.). The assay is capable of detecting 0.1-2.0 μM PIP3 product. The Ki apparent values were obtained by fitting the dose-dependent inhibition data to the Morrison equation for tight-binding, competitive inhibitors. Reference: R. A. Copeland, Enzymes. “A Practical Introduction to Structure, Mechanism and Data Analysis”.
The Formula I compound was serially diluted in 100% DMSO. The kinase reaction was incubated for 1 h at room temperature, and the reaction was terminated by the addition of PBS. IC50 values were subsequently determined using sigmoidal dose-response curve fit (variable slope). […]

p110 alpha = biological target: T2, p110 alpha (Homo sapiens, UniProt P42336); test: PI3K isoform inhibition assay (fluorescence polarization), p110 alpha; type: biochemical; conditions: delta/alpha selectivity ratio
T2 construct: purchased Upstate Group, Millipore; Dundee, UK
Protocol: as §1, §2
The same protocol may be used to establish Ki values for p110α (alpha) PI3K binding.
The four Class I PI 3-kinases are cloned into baculovirus vectors as follows: […]

T1 sequence (O00329 whole entry, canonical isoform): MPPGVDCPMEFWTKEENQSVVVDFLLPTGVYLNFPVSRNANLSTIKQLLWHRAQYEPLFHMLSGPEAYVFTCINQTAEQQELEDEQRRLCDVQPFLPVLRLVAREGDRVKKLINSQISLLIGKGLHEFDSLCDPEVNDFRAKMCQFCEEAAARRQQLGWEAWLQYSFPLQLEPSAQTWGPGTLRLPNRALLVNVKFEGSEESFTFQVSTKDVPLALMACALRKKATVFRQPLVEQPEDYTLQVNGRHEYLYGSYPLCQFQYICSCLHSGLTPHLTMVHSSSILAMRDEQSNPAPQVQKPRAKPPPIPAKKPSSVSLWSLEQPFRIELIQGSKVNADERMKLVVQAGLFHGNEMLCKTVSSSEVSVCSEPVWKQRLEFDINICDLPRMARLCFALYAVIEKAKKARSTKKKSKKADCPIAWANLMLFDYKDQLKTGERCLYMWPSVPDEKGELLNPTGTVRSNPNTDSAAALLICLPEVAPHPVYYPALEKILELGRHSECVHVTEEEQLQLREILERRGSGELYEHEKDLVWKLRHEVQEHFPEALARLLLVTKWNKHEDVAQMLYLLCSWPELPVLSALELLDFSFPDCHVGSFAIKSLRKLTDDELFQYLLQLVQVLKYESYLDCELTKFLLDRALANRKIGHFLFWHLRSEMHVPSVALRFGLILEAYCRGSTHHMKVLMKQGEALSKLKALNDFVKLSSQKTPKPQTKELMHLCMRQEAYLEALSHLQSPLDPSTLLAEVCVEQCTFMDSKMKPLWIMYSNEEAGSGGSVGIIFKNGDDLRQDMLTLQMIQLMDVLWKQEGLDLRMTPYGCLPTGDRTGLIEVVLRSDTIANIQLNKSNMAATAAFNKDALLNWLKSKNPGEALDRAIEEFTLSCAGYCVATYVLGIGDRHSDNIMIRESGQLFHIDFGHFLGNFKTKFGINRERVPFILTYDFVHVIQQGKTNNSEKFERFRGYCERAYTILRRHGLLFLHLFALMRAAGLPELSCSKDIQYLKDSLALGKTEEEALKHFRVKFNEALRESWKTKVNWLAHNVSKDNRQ
T1 sequence (P27986 whole entry partner, canonical isoform): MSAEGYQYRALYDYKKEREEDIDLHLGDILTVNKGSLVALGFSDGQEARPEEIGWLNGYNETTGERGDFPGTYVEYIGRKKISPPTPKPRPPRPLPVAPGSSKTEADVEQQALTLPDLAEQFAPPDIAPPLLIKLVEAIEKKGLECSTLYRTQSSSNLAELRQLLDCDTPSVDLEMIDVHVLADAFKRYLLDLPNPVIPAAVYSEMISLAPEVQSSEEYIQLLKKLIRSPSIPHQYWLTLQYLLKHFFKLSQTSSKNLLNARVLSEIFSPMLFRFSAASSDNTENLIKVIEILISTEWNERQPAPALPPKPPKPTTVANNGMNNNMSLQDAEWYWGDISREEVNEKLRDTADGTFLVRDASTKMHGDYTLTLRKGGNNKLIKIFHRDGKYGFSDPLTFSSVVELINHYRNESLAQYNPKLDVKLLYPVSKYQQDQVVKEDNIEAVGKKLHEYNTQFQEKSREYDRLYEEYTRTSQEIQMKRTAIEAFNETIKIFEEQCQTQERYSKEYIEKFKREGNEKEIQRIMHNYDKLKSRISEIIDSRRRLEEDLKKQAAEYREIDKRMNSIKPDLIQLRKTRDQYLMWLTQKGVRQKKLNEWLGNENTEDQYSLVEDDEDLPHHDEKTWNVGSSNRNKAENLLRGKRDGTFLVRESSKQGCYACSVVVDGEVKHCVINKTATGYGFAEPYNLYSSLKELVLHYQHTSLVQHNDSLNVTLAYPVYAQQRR
T2 sequence (P42336 whole entry, species assumed, canonical isoform): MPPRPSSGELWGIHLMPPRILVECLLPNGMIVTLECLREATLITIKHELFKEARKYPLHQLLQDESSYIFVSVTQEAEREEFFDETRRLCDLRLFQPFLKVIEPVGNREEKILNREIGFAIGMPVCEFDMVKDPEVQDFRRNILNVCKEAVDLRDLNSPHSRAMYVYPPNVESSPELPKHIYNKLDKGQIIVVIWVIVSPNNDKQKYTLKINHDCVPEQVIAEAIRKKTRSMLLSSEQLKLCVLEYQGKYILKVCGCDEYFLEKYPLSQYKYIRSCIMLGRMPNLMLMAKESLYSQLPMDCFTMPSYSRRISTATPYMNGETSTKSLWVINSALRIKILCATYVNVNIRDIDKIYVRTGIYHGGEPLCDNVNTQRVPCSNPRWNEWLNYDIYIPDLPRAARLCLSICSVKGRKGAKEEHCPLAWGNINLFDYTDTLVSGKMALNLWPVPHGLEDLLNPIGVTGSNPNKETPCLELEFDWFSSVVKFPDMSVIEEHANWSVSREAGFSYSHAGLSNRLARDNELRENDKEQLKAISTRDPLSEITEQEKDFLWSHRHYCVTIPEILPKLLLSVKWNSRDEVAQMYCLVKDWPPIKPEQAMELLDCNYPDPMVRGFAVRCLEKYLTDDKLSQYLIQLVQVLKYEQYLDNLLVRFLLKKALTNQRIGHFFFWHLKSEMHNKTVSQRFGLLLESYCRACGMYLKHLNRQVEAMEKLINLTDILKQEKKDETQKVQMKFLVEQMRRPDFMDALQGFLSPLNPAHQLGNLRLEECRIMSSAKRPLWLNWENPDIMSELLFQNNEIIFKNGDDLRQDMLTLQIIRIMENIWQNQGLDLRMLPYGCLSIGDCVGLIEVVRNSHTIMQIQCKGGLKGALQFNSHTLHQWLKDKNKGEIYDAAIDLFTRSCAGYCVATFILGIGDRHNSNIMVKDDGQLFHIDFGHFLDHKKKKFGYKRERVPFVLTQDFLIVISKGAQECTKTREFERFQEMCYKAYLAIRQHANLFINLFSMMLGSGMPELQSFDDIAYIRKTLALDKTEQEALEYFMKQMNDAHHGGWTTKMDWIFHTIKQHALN
T2 sequence (P27986 whole entry partner, species assumed, canonical isoform): as the sequence (P27986 whole entry partner, canonical isoform) above

| Compound | Ki (p110 delta) [nM] | Ki p110 alpha/ Ki p110 delta (p110 alpha) |
| --- | --- | --- |
| Cn1c(OC2CN(C3CCS(=O)(=O)CC3)C2)nc2c(N3CCOCC3)nc(-n3c(C(C)(F)F)nc4ccccc43)nc21 [Compound 139, 4-(2-(2-(1,1-difluoroethyl)-1H-benzo[d]imidazol-1-yl)-9-methyl-8-(1-(1,1-dioxo-tetrahydro-2H-thiopyran-4-yl)azetidin-3-yloxy)-9H-purin-6-yl)morpholine] | 1.42 | 59 |
| CCc1nc2ccccc2n1-c1nc(N2CCOCC2)c2nc(OC3CN(C(=O)C4(F)CC4)C3)n(C)c2n1 [Compound 146, (3-(2-(2-ethyl-1H-benzo[d]imidazol-1-yl)-9-methyl-6-morpholino-9H-purin-8-yloxy)azetidin-1-yl)(1-fluorocyclopropyl)methanone] | 4.46 | 41 |
| CCc1nc2ccccc2n1-c1nc(N2CCOCC2)c2nc(OC3CCNCC3)n(C)c2n1 [Compound 124, 4-(2-(2-ethyl-1H-benzo[d]imidazol-1-yl)-9-methyl-8-(piperidin-4-yloxy)-9H-purin-6-yl)morpholine] | 0.91 | 188 |
| CO[C@@H](C)c1nc2ccccc2n1-c1nc(N2CCOCC2)c2nc(OC3CN(C4CCS(=O)(=O)CC4)C3)n(C)c2n1 [Compound 143, (S)-4-(2-(2-(1-methoxyethyl)-1H-benzo[d]imidazol-1-yl)-9-methyl-8-(1-(1,1-dioxo-tetrahydro-2H-thiopyran-4-yl)azetidin-3-yloxy)-9H-purin-6-yl)morpholine] | 1.59 | 50 |
| CCc1nc2ccccc2n1-c1nc(N2CCOCC2)c2nc(OC3CN(C(=O)C4(C)CC4)C3)n(C)c2n1 [Compound 145, (3-(2-(2-ethyl-1H-benzo [d]imidazol-1-yl)-9-methyl-6-morpholino-9H-purin-8-yloxy)azetidin-1-yl)(1-methylcyclopropyl)methanone] | 0.826 | 100 |
| Cn1c(OC2CN(C3CCS(=O)(=O)CC3)C2)nc2c(N3CCOCC3)nc(-n3c(CCO)nc4ccccc43)nc21 [Compound 136, 2-(1-(9-methyl-6-morpholino-8-(1-(1,1-dioxo-tetrahydro-2H-thiopyran-4-yl)azetidin-3-yloxy)-9H-purin-2-yl)-1H-benzo[d]imidazol-2-yl)ethanol] | 4.94 | 90 |
| CCc1nc2ccccc2n1-c1nc(N2CCOCC2)c2nc(OC3CN(C4CCS(=O)(=O)CC4)C3)n(C)c2n1 [Compound 114, 4-(2-(2-ethyl-1H-benzo[d]imidazol-1-yl)-9-methyl-8-(1-(1,1-dioxo-tetrahydro-2H-thiopyran-4-yl)azetidin-3-yloxy)-9H-purin-6-yl)morpholine] | 1.26 | 163 |
| CCc1nc2ccccc2n1-c1nc(N2CCOCC2)c2nc(OC3CN(C(=O)C4(C#N)CC4)C3)n(C)c2n1 [Compound 150, 1-(3-(2-(2-ethyl-1H-benzo [d]imidazol-1-yl)-9-methyl-6-morpholino-9H-purin-8-yloxy)azetidine-1-carbonyl) cyclopropanecarbonitrile] | 2.86 | 30 |
| CCc1nc2ccccc2n1-c1nc(N2CCOCC2)c2nc(OC3CN(C(=O)C(C)(C)O)C3)n(C)c2n1 [Compound 115, 1-(3-(2-(2-ethyl-1H-benzo[d]imidazol-1-yl)-9-methyl-6-morpholino-9H-purin-8-yloxy)azetidin-1-yl)-2-hydroxy-2-methylpropan-1-one] | 2.22 | 70 |
| CC(C)c1nc2ccccc2n1-c1nc(N2CCOCC2)c2nc(OC3CN(C4COC4)C3)n(C)c2n1 [Compound 111, 4-(2-(2-isopropyl-1H-benzo[d]imidazol-1-yl)-9-methyl-8-(1-(oxetan-3-yl)azetidin-3-yloxy)-9H-purin-6-yl)morpholine] | 1.64 | 102 |
| CCc1nc2ccccc2n1-c1nc(N2CCOCC2)c2nc(OC3CN(C4CCOCC4)C3)n(C)c2n1 [Compound 116, 4-(2-(2-ethyl-1H-benzo[d]imidazol-1-yl)-9-methyl-8-(1-(tetrahydro-2H-pyran-4-yl)azetidin-3-yloxy)-9H-purin-6-yl)morpholine] | 1.28 | 118 |
| CCc1nc2ccccc2n1-c1nc(N2CCOCC2)c2nc(OC3CN(C(=O)C4(C(F)(F)F)CC4)C3)n(C)c2n1 [Compound 155, (3-(2-(2-ethyl-1H-benzo[d]imidazol-1-yl)-9-methyl-6-morpholino-9H-purin-8-yloxy)azetidin-1-yl)(1-(trifluoromethyl)cyclopropyl) methanone] | 0.321 | 91 |
| CCc1nc2ccccc2n1-c1nc(N2CCOCC2)c2nc(OC3CCN(C4CCC(O)CC4)CC3)n(C)c2n1 (single isomer, unassigned) [Compound 130, 4-(4-(2-(2-ethyl-1H-benzo[d]imidazol-1-yl)-9-methyl-6-morpholino-9H-purin-8-yloxy)piperidin-1-yl)cyclohexanol] | 0.594 | 151 |
| CCc1nc2ccccc2n1-c1nc(N2CCOCC2)c2nc(OC3CN(C(=O)C(C)(C)N)C3)n(C)c2n1 [Compound 121, 2-amino-1-(3-(2-(2-ethyl-1H-benzo[d]imidazol-1-yl)-9-methyl-6-morpholino-9H-purin-8-yloxy)azetidin-1-yl)-2-methylpropan-1-one] | 1.29 | 51 |
| CCc1nc2ccccc2n1-c1nc(N2CCOCC2)c2nc(OC3CN(C(=O)C(C)(C)CO)C3)n(C)c2n1 [Compound 151, 1-(3-(2-(2-ethyl-1H-benzo [d]imidazol-1-yl)-9-methyl-6-morpholino-9H-purin-8-yloxy)azetidin-1-yl)-3-hydroxy-2,2-dimethylpropan-1-one] |  | 126 |
| CO[C@@H](C)c1nc2ccccc2n1-c1nc(N2CCOCC2)c2nc(OC3CN(C(=O)C(C)C)C3)n(C)c2n1 [Compound 141, (S)-1-(3-(2-(2-(1-methoxyethyl)-1H-benzo[d]imidazol-1-yl)-9-methyl-6-morpholino-9H-purin-8-yloxy)azetidin-1-yl)-2-methylpropan-1-one] | 0.834 | 54 |
| CC(C)C(=O)N1CC(Oc2nc3c(N4CCOCC4)nc(-n4c(CCO)nc5ccccc54)nc3n2C)C1 [Compound 138, 1-(3-(2-(2-(2-hydroxyethyl)-1H-benzo[d]imidazol-1-yl)-9-methyl-6-morpholino-9H-purin-8-yloxy)azetidin-1-yl)-2-methylpropan-1-one] | 3.91 | 68 |
| CCc1nc2ccccc2n1-c1nc(N2CCOCC2)c2nc(OC3CN(C(=O)C4CC4)C3)n(C)c2n1 [Compound 119, Cyclopropyl(3-(2-(2-ethyl-1H-benzo[d]imidazol-1-yl)-9-methyl-6-morpholino-9H-purin-8-yloxy)azetidin-1-yl)methanone] |  | 115 |
